Test results taken from US10294202B2, “Pyrrolidinones as herbicides” (FMC Corporation, priority 2013, dated 2019).

How the values were obtained:
[1] = test system: blackgrass; test: Test A postemergence herbicide test; type: in vivo, Alopecurus myosuroides
Procedure, shortened: (§1)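 Potted in loam soil/sand blend; postemergence application at 1–2 leaf stage (2–10 cm). Greenhouse ~10 d. Visual injury vs untreated, 0–100 scale; 100 = complete control.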

[2] = test system: rice; test: Test B flooded paddy test; type: in vivo, Oryza sativa; conditions: Flood, scale of 0 to 100 where 0 is no effect and 100 is complete control
Procedure, shortened: (§2)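 Plants were grown to the 2-leaf stage, then pots were flooded to 3 cm above the soil and compound was applied directly into the paddy water, with that depth held throughout. After 13 to 15 days in a greenhouse, injury was rated visually against untreated controls on a 0 to 100 scale (100 = complete control).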

[3] = test system: wheat; test: Test A pre-/postemergence herbicide test; type: in vivo, Triticum aestivum
Procedure, shortened: (§3)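 Formulated compound (non-phytotoxic solvent, surfactant) sprayed pre- onto soil of seeded loam/sand pots or post- onto seedlings at 1–2 leaves; ~10 d greenhouse; 0–100 visual control rating versus untreated.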

[4] = test system: giant foxtail; test: Test A pre-/postemergence herbicide test; type: in vivo, Setaria faberii
Procedure, shortened: as §3

[5] = test system: ragweed; test: Test A pre-/postemergence herbicide test; type: in vivo, Ambrosia elatior; conditions: for Plant response rating, Ragweed: 0 to 100 scale
Procedure, shortened: as §3

[6] = test system: corn; test: Test A pre-/postemergence herbicide test; type: in vivo, Zea mays
Procedure, shortened: as §3

[7] = test system: galium; test: Test A postemergence herbicide test; type: in vivo, Galium aparine; conditions: for Plant response rating, Galium: 125 g ai/ha, 0 to 100 scale, 0 no effect, 100 complete control; for Galium plant response rating (0 to 100 scale, 0 is no effect, 100 is complete control): 500 g ai/ha
Procedure, shortened: as §1

[8] = test system: barnyardgrass; test: Test B flooded paddy test; type: in vivo, Echinochloa crus-galli; conditions: Flood, scale of 0 to 100 where 0 is no effect and 100 is complete control
Procedure, shortened: as §2

[9] = test system: pigweed; test: Test A pre-/postemergence herbicide test; type: in vivo, Amaranthus retroflexus
Procedure, shortened: as §3

[10] = test system: barnyardgrass; test: Test A pre-/postemergence herbicide test; type: in vivo, Echinochloa crus-galli
Procedure, shortened: as §3

[11] = test system: kochia; test: Test A pre-/postemergence herbicide test; type: in vivo, Kochia scoparia; conditions: for Plant response rating, Kochia: 0 to 100 scale
Procedure, shortened: as §3

[12] = test system: ryegrass, Italian; test: Test A pre-/postemergence herbicide test; type: in vivo, Lolium multiflorum; conditions: for Plant response rating, Ryegrass, Italian: 0 to 100 scale
Procedure, shortened: as §3

[13] = test system: ducksalad; test: Test B flooded paddy test; type: in vivo, Heteranthera limosa; conditions: Flood, scale of 0 to 100 where 0 is no effect and 100 is complete control
Procedure, shortened: as §2

[14] = test system: sedge, umbrella; test: Test B flooded paddy test; type: in vivo, Cyperus difformis; conditions: Flood, scale of 0 to 100 where 0 is no effect and 100 is complete control
Procedure, shortened: as §2

[15] = test system: morningglory; test: Test A pre-/postemergence herbicide test; type: in vivo, Ipomoea spp.
Procedure, shortened: as §3

[16] = test system: crabgrass, large; test: Test A pre-/postemergence herbicide test; type: in vivo, Digitaria sanguinalis
Procedure, shortened: as §3

[17] = test system: velvetleaf; test: Test A pre-/postemergence herbicide test; type: in vivo, Abutilon theophrasti
Procedure, shortened: as §3

[18] = 125 g ai/ha, 0 to 100 scale, 0 no effect, 100 complete control
[19] = 500 g ai/ha, 0 to 100 scale (0 no effect, 100 complete control)
[20] = Postemergence, 125 g ai/ha, 0 to 100 scale, 0 no effect, 100 complete control
[21] = 125 g ai/ha, visual rating, 0 to 100 scale, 0 no effect, 100 complete control, approximately 10 days, preemergence
[22] = preemergence, 500 g ai/ha, 0 to 100 scale
[23] = 125 g ai/ha, visual rating, 0 no effect, 100 complete control, approximately 10 days, preemergence
[24] = Postemergence, 125 g ai/ha, 0 no effect, 100 complete control
[25] = Postemergence, 500 g ai/ha, 0 to 100 scale (0 no effect, 100 complete control)
[26] = preemergence, 500 g ai/ha, 0 to 100 scale (0 no effect, 100 complete control)
[27] = Preemergence, 125 g ai/ha, visual rating on 0 to 100 scale (0 no effect, 100 complete control)

## O=C1NCC(c2cccc(OC(F)(F)C(F)F)c2)C1C(=O)Nc1cccc(F)c1F (racemic) [Compound 123]
[1]; [18]
  Plant response rating, Blackgrass: 60
[1]; [19]
  Plant response rating, Blackgrass: 70
[2]; 500 g ai/ha
  Plant response rating, Rice: 0
[3]; [20]
  Plant response rating, Wheat: 50
[3]; Postemergence, 500 g ai/ha
  Wheat plant response rating (0 to 100 scale, 0 is no effect, 100 is complete control): 60
[4]; [21]
  Plant response rating, Foxtail, Giant: 90
[4]; [20]
  Plant response rating, Foxtail, Giant: 80
[4]; Postemergence, 500 g ai/ha
  Foxtail, Giant plant response rating (0 to 100 scale, 0 is no effect, 100 is complete control): 90
[4]; [22]
  Plant response rating, Foxtail, Giant: 90
[5]; [23]
  Plant response rating, Ragweed: 70
[5]; [24]
  Plant response rating, Ragweed: 50
[5]; Postemergence, 500 g ai/ha
  Ragweed plant response rating (0 to 100 scale, 0 is no effect, 100 is complete control): 70
[5]; preemergence, 500 g ai/ha
  Plant response rating, Ragweed: 80
[6]; [20]
  Plant response rating, Corn: 50
[6]; [25]
  Plant response rating, Corn: 80
[7]
  Plant response rating, Galium: 60
  Galium plant response rating (0 to 100 scale, 0 is no effect, 100 is complete control): 70
[8]; 500 g ai/ha
  Plant response rating, Barnyardgrass: 60
[9]; [21]
  Plant response rating, Pigweed: 70
[9]; [20]
  Plant response rating, Pigweed: 80
[9]; Postemergence, 500 g ai/ha
  Pigweed plant response rating (0 to 100 scale, 0 is no effect, 100 is complete control): 90
[9]; [22]
  Plant response rating, Pigweed: 80
[10]; [21]
  Plant response rating, Barnyardgrass: 80
[10]; [20]
  Plant response rating, Barnyardgrass: 70
[10]; [25]
  Plant response rating, Barnyardgrass: 80
[10]; [26]
  Plant response rating, Barnyardgrass: 90
[11]; [23]
  Plant response rating, Kochia: 80
[11]; [24]
  Plant response rating, Kochia: 60
[11]; Postemergence, 500 g ai/ha
  Kochia plant response rating (0 to 100 scale, 0 is no effect, 100 is complete control): 70
[11]; preemergence, 500 g ai/ha
  Plant response rating, Kochia: 90
[12]; [23]
  Plant response rating, Ryegrass, Italian: 40
[12]; [24]
  Plant response rating, Ryegrass, Italian: 40
[12]; Postemergence, 500 g ai/ha
  Ryegrass, Italian plant response rating (0 to 100 scale, 0 is no effect, 100 is complete control): 50
[12]; preemergence, 500 g ai/ha
  Plant response rating, Ryegrass, Italian: 60
[13]; 500 g ai/ha
  Plant response rating, Ducksalad: 100
[14]; 500 g ai/ha
  Plant response rating, Sedge, Umbrella: 0

## O=C1NCC(c2cccc(OC(F)(F)C(F)F)c2)C1C(=O)Nc1ccccc1Cl (racemic) [Compound 125]
[1]; [18]
  Plant response rating, Blackgrass: 20
[1]; [19]
  Plant response rating, Blackgrass: 50
[2]; 500 g ai/ha
  Plant response rating, Rice: 0
[3]; [20]
  Plant response rating, Wheat: 0
[3]; Postemergence, 500 g ai/ha
  Wheat plant response rating (0 to 100 scale, 0 is no effect, 100 is complete control): 0
[4]; [21]
  Plant response rating, Foxtail, Giant: 80
[4]; [20]
  Plant response rating, Foxtail, Giant: 70
[4]; Postemergence, 500 g ai/ha
  Foxtail, Giant plant response rating (0 to 100 scale, 0 is no effect, 100 is complete control): 80
[4]; [22]
  Plant response rating, Foxtail, Giant: 90
[5]; [23]
  Plant response rating, Ragweed: 0
[5]; [24]
  Plant response rating, Ragweed: 0
[5]; Postemergence, 500 g ai/ha
  Ragweed plant response rating (0 to 100 scale, 0 is no effect, 100 is complete control): 0
[5]; preemergence, 500 g ai/ha
  Plant response rating, Ragweed: 0
[6]; [20]
  Plant response rating, Corn: 0
[6]; [25]
  Plant response rating, Corn: 0
[7]
  Plant response rating, Galium: 0
  Galium plant response rating (0 to 100 scale, 0 is no effect, 100 is complete control): 60
[8]; 500 g ai/ha
  Plant response rating, Barnyardgrass: 30
[9]; [21]
  Plant response rating, Pigweed: 0
[9]; [20]
  Plant response rating, Pigweed: 0
[9]; Postemergence, 500 g ai/ha
  Pigweed plant response rating (0 to 100 scale, 0 is no effect, 100 is complete control): 20
[9]; [22]
  Plant response rating, Pigweed: 0
[10]; [21]
  Plant response rating, Barnyardgrass: 80
[10]; [20]
  Plant response rating, Barnyardgrass: 60
[10]; [25]
  Plant response rating, Barnyardgrass: 70
[10]; [26]
  Plant response rating, Barnyardgrass: 90
[11]; [23]
  Plant response rating, Kochia: 30
[11]; [24]
  Plant response rating, Kochia: 20
[11]; Postemergence, 500 g ai/ha
  Kochia plant response rating (0 to 100 scale, 0 is no effect, 100 is complete control): 60
[11]; preemergence, 500 g ai/ha
  Plant response rating, Kochia: 70
[12]; [23]
  Plant response rating, Ryegrass, Italian: 0
[12]; [24]
  Plant response rating, Ryegrass, Italian: 0
[12]; Postemergence, 500 g ai/ha
  Ryegrass, Italian plant response rating (0 to 100 scale, 0 is no effect, 100 is complete control): 0
[12]; preemergence, 500 g ai/ha
  Plant response rating, Ryegrass, Italian: 20
[13]; 500 g ai/ha
  Plant response rating, Ducksalad: 85
[14]; 500 g ai/ha
  Plant response rating, Sedge, Umbrella: 0

## O=C1NCC(c2ccc3c(c2)OC(F)(F)O3)C1C(=O)Nc1ccccc1F (stereo not drawn) [Compound 63]
[2]; 250 g ai/ha
  Plant response rating, Rice: 0
[15]; [20]
  Plant response rating, Morningglory: 0
[15]; [25]
  Plant response rating, Morningglory: 0
[15]; [27]
  Morningglory plant response rating: 0
[15]; [22]
  Plant response rating, Morningglory: 0
[3]; [20]
  Plant response rating, Wheat: 0
[3]; [25]
  Plant response rating, Wheat: 30
[3]; [27]
  Wheat plant response rating: 0
[3]; [22]
  Plant response rating, Wheat: 0
[4]; [20]
  Plant response rating, Foxtail, Giant: 70
[4]; [25]
  Plant response rating, Foxtail, Giant: 90
[4]; [27]
  Foxtail, Giant plant response rating: 70
[4]; [22]
  Plant response rating, Foxtail, Giant: 90
[6]; [20]
  Plant response rating, Corn: 0
[6]; [25]
  Plant response rating, Corn: 50
[6]; [27]
  Corn plant response rating: 0
[6]; [22]
  Plant response rating, Corn: 0
[8]; 250 g ai/ha
  Plant response rating, Barnyardgrass: 20
[9]; [20]
  Plant response rating, Pigweed: 0
[9]; [25]
  Plant response rating, Pigweed: 0
[9]; [27]
  Pigweed plant response rating: 0
[9]; [22]
  Plant response rating, Pigweed: 0
[10]; [20]
  Plant response rating, Barnyardgrass: 60
[10]; [25]
  Plant response rating, Barnyardgrass: 80
[10]; [27]
  Barnyardgrass plant response rating: 50
[10]; [26]
  Plant response rating, Barnyardgrass: 80
[16]; [20]
  Plant response rating, Crabgrass, Large: 80
[16]; [25]
  Plant response rating, Crabgrass, Large: 90
[16]; [27]
  Crabgrass, Large plant response rating: 90
[16]; [22]
  Plant response rating, Crabgrass, Large: 90
[13]; 250 g ai/ha
  Plant response rating, Ducksalad: 60
[14]; 250 g ai/ha
  Plant response rating, Sedge, Umbrella: 0
[17]; [20]
  Plant response rating, Velvetleaf: 0
[17]; [25]
  Plant response rating, Velvetleaf: 0
[17]; [27]
  Velvetleaf plant response rating: 0
[17]; [22]
  Plant response rating, Velvetleaf: 0
